The source of these data is patent publication US4042683A, “Rifamycins P, Q and U” (Gruppo Lepetit S.p.A., priority 1974, dated 1977).

Molecules are shown by their SMILES. ≈ marks a conversion by molar mass, not a printed value. Like-named read-outs stand apart in the source and are kept apart here. A value given as a limit tells only on which side of the number the result lay.

The test system of test [1] is Klebsiella pneumoniae ATCC 10031. The test is described as follows: in vitro activity spectrum, minimal inhibition concentration, Klebsiella pneumoniae ATCC 10031. Type of test: cell-based. From the text:
(§1) | Minimal inhibiton concentration (μg/ml)

Test [2] deals with Mycobacterium tub. H37Rv ATCC 9360. The experiment in a line: in vitro activity spectrum, minimal inhibition concentration, Mycobacterium tub. H37Rv ATCC 9360. Type of test: cell-based.
Source text: as §1

Test [3] relates to Pseudomonas aeruginosa ATCC 10145. The experiment in a line: in vitro activity spectrum, minimal inhibition concentration, Pseudomonas aeruginosa ATCC 10145. Type of test: cell-based.
Source text: as §1

The test system of test [4] is Escherichia coli ATCC 10536. The experiment in a line: in vitro activity spectrum, minimal inhibition concentration, Escherichia coli ATCC 10536. In kind it is cell-based.
Source text: as §1

Test [5] has as its system Proteus vulgaris X 19 H ATCC 881. The test is described as follows: in vitro activity spectrum, minimal inhibition concentration, Proteus vulgaris X 19 H ATCC 881. In kind it is cell-based.
Source text: as §1

In test [6] the test system is Streptococcus hemolyticus C 203. The experiment in a line: in vitro activity spectrum, minimal inhibition concentration, Streptococcus hemolyticus C 203. Type of test: cell-based.
Source text: as §1

The subject of test [7] is Diplococcus pneumoniae UC 41. The experiment in a line: in vitro activity spectrum, minimal inhibition concentration, Diplococcus pneumoniae UC 41. Type of test: cell-based.
Source text: as §1

In test [8] the test system is Staphylococcus aureus ATCC 6538. The experiment in a line: in vitro activity spectrum, minimal inhibition concentration, Staphylococcus aureus ATCC 6538. Type of test: cell-based. The following applies: for MIC: Staphylococcus aureus, read-out: Minimal inhibiton concentration.
Source text: as §1

Test [9] has as its system Streptococcus faecalis ATCC 10541. The experiment in a line: in vitro activity spectrum, minimal inhibition concentration, Streptococcus faecalis ATCC 10541. In kind it is cell-based.
Source text: as §1

Test [10] deals with Staphylococcus aureus Tour rifampicin-resistant. The experiment in a line: in vitro activity spectrum, minimal inhibition concentration, Staphylococcus aureus Tour rifampicin-resistant.
The subject of the next test is Staphylococcus aureus. The test is described as follows: experiments on mice injected with Staphylococcus aureus. Type of test: in vivo. From the text: The novel compounds are active also in the laboratory animals injected with Staphylococcus aureus, Escherichia coli. The following table reports the results of representative experiments on mice in comparison with a known natural rifamycin, i.e. rifamycin SV.

In test [11] the test system is Staphylococcus aureus Tour. The test is described as follows: in vitro activity spectrum, minimal inhibition concentration, Staphylococcus aureus Tour. In kind it is cell-based.
Source text: as §1

The subject of a further test is Bacillus Subtilis. The experiment in a line: agar disc inhibition of growth of Bacillus subtilis. In kind it is cell-based. The following applies: Penassay agar pH 7.2, disc of agar carrying a single colony. On the procedure:
A suspension of spores of Streptomyces mediterranei ATCC 13685 was treated with N-methyl-N'-nitro-N-nitrosoguanidine at 1 mg/ml in a pH 9.0 tris(hydroxymethyl)aminomethane buffer for 60 minutes at 28° C. The mutagen-treated spores were then washed and plated onto Petri dishes containing Bennett agar. After 14 days incubation at 28° C., the surviving colonies were picked off and examined for their ability to inhibit the growth of Bacillus Subtilis in the following manner: a disc of agar (diameter 4-8 mm) carrying a single colony was transferred onto a Petri disch containing […] agar at pH 7.2 previously seeded at 2% (v/v) with Bacillus Subtilis. […] Three strains were isolated in this way and were originally given our internal code D-2, MM18-6 and M-36. Samples of these microorganisms were deposited with the ATCC where they are identified respectively as Nocardia mediterranea ATCC 31064 Nocardia mediterranea ATCC 31065 and Nocardia mediterranea ATCC 31066.

In general, ED50 refers to the dose at which the effect has come halfway, by size or by number of responders.

For the molecule `COC1/C=C\OC2(C)Oc3c(C)c(O)c4c(O)c(c5sc(CO)nc5c4c3C2=O)NC(=O)/C(C)=C/C=C/C(C)C(O)C(C)C(O)C(C)C(OC(C)=O)C1C` (stereo not drawn) [Rifamycin Q], the Minimal inhibiton concentration in test [1] is 50 µg/mL (≈ 65 µM); in [2], 2.5 µg/mL (≈ 3.25 µM); in [3], 50 µg/mL (≈ 65 µM); in test [4], 12.5 µg/mL (≈ 16.3 µM); in test [5] it was 12.5 µg/mL (≈ 16.3 µM); in [6] it was 0.019 µg/mL (≈ 0.0247 µM). The Minimal inhibiton concentration was 0.039 µg/mL (≈ 0.0507 µM) in [7]; 0.039 µg/mL (≈ 0.0507 µM) in [8] (Staphylococcus aureus ATCC 6538); 0.078 µg/mL (≈ 0.101 µM) in test [8] (Staphylococcus aureus ATCC 6538 (20% bovine serum)); 0.312 µg/mL (≈ 0.406 µM) in [9]; greater than 100 µg/mL in test [10] (Staphylococcus aureus Tour rifampicin-resistant); 0.06 µg/mL (≈ 0.078 µM) in [11]. In addition, the ED50 with Staphylococcus aureus (s.c.) stood at 8 mg/kg.

Consider `COC1C=COC2(C)Oc3c(C)c(O)c4c(c3C2=O)C(=O)C=C(NC(=O)C(CO)=CC=CC(C)C(O)C(C)C(O)C(C)C(OC(C)=O)C1C)C4=O` (stereo not drawn) [Rifamycin R], for which the MIC in [2] (Mycobacterium tuberculosis, read-out: Minimal inhibiton concentration) was determined as 0.1 µg/mL (≈ 0.14 µM); in test [3] (ATCC10145, read-out: Minimal inhibiton concentration), 100 µg/mL (≈ 140 µM); in test [4] (ATCC10536, read-out: Minimal inhibiton concentration), 50 µg/mL (≈ 70.2 µM); in test [5] (ATCC881, read-out: Minimal inhibiton concentration), 12.5 µg/mL (≈ 17.6 µM); in test [6] (Streptococcus pyogenes, C203, read-out: Minimal inhibiton concentration), 0.00312 µg/mL (≈ 0.00438 µM); in test [7] (Streptococcus pneumoniae, UC41, read-out: Minimal inhibiton concentration), 0.00625 µg/mL (≈ 0.00878 µM). The MIC came to 0.0047 µg/mL (≈ 0.0066 µM) in test [8] (ATCC6538, Staphylococcus aureus ATCC 6538 (20% bovine serum)); 0.019 µg/mL (≈ 0.0267 µM) in test [8] (ATCC6538, Staphylococcus aureus ATCC 6538); 0.19 µg/mL (≈ 0.267 µM) in test [9] (Enterococcus faecalis, ATCC10541, read-out: Minimal inhibiton concentration); 100 µg/mL (≈ 140 µM) in test [10] (Staphylococcus aureus, read-out: Minimal inhibiton concentration); 0.00235 µg/mL (≈ 0.0033 µM) in test [11] (read-out: Minimal inhibiton concentration).

Regarding `COC1C=COC2(C)Oc3c(C)c(O)c4c(O)c(cc(OCC(=O)O)c4c3C2=O)NC(=O)C(C)=CC=CC(C)C(O)C(C)C(O)C(C)C(OC(C)=O)C1C` (stereo not drawn) [rifamycin B], in the test on Bacillus Subtilis, the “inhibition of the growth of Bacillus subtilis” value was “practically inactive”.

For the molecule `CO[C@H]1/C=C/O[C@@]2(C)Oc3c(C)c(O)c4c(O)c(cc(O)c4c3C2=O)NC(=O)/C(C)=C\C=C\[C@H](C)[C@H](O)[C@@H](C)[C@@H](O)[C@@H](C)[C@H](OC(C)=O)[C@@H]1C` [rifamycin SV], the 50% effective dose (ED50) in the test with Staphylococcus aureus (po, o.s., read-out: ED50) turned out to be 74 mg/kg; with Staphylococcus aureus (sc, read-out: ED50), 17 mg/kg.
